Experimental data published in publication PMC13144739, “Global analysis of cancer cell responses to USP9X inhibition” (The EMBO Journal, 2026).
Several values for one entry are separate records, joined by “and”; a condition that tells them apart may be missing. Equal values may be shown once. Entries after “also recorded” stand apart in the source; their conditions may differ.

Columns and labels:
[1] = target: T1, USP9X catalytic domain (Homo sapiens, UniProt Q93008); test: Ub-PA suicide probe competition assay; type: biochemical; conditions: 50 µM compound, WT catalytic domain
T1 construct: His/SUMO (pOPIN-S vector) (N, cleaved yes); made in house; host or cells: E. coli BL21
T1 sequence (Q93008 1551-1970): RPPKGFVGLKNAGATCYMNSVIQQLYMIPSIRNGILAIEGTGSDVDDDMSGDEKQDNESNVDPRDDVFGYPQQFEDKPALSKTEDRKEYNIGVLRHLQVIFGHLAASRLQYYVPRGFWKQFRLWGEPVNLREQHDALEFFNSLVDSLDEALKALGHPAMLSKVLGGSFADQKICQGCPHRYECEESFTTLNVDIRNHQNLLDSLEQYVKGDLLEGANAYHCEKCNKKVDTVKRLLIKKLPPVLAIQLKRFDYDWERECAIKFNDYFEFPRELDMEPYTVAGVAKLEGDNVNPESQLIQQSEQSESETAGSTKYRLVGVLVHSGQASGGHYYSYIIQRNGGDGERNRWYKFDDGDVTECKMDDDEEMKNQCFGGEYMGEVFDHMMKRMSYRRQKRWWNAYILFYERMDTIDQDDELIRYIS
Description: For inhibitor activity assays, USP9X catalytic domain (di-ubiquitin cleavage assay: 750 nM, ubiquitin-probe assays: 2.5 µM) was pre-incubated with USP9X inhibitors for 30 min at ambient temperature and subsequently mixed with di-ubiquitin (final concentration 2 µM) in assay buffer (25 mM Tris [pH 8.0], 150 mM NaCl, 10 mM DTT) at pH 8.0 or was mixed with ubiquitin-propargylamide (Ub-PA)/ubiquitin-vinyl sulfonate (Ub-VS) probes at a final concentration of 10 µM in assay buffer. For both assays, the mixture was incubated over a time course, and the reaction was stopped by mixing samples with 2× LDS sample buffer (Invitrogen) supplemented with 3% (v/v) 2-mercaptoethanol. All protein samples were run on a 4–12% Bis-Tris SDS-PAGE gradient gel (Invitrogen) for 60 min at 140 V. The gel was stained with InstantBlue® (Abcam) and imaged.

[2] = tested on: UO-31 cells; test: IncuCyte live-cell imaging cell death (PI uptake), UO-31; type: cell-based, human
Description: (§1) Cells were seeded at varying densities (1000–8000 cells per well) after initial optimisation in a 96-well tissue culture-treated plate (Thermo Fisher Scientific). Cells were incubated o/n, and the next day, inhibitors and controls diluted in cell media were added to the cells to a final volume of 200 μL per well. Cell death was measured using PI (Sigma-Aldrich). Cells were imaged with four images per well every 2 h for up to 96 h using the IncuCyte live-cell analysis system (S3, Sartorius). Cell proliferation data were analysed using Microsoft Excel by normalising confluence to control conditions. For cell killing readouts, the number of PI-positive cells was normalised to the control conditions for each timepoint.

[3] = target: T2, USP9X/USP24 chimera Δβ (Homo sapiens, UniProt Q93008, A1766S/D1761E/DEL1924-1943/K1759R/L1762V/Y1757F); test: Ub-Rho cleavage assay, USP9X/USP24 chimera Δβ; type: biochemical
T2 construct: His/SUMO (pOPIN-S vector) (N, cleaved yes); made in house; host or cells: E. coli BL21
Description: (§2) An expression construct for the USP9X catalytic domain (aa 1551–1970, […]: Q93008-1), was codon optimised for bacterial expression, synthesised in gBlock format (Integrated DNA Technologies) and cloned into the pOPIN-S vector (Berrow et al, [2007]), which was digested with KpnI and HindIII using In-Fusion™ HD cloning (Takara Clontech). […] For the USP9X Δβ catalytic domain a deletion construct ΔE1924-K1943 and for USP9X/USP24 chimera, a construct with USP9X Y1757-A1766 replaced with the USP24 (NCBI Reference Sequence: NP_056121) aa motif […] was used. All constructs were confirmed by Sanger sequencing (AGRF).
(§3) The reaction was stopped through the addition of 10 mM citric acid. The assay was performed in 384-well format with a total reaction volume of 16 µL. Data was collected using the ClarioSTAR plate reader (BMG Labtech) at an emission of 535 nm. […] IC50 values presented in our study are the mean of three independent biological repeats unless indicated otherwise.

[4] = tested on: HUVECs; test: IncuCyte live-cell imaging, HUVEC; type: cell-based
Description: as §1

[5] = target: T1, USP9X catalytic domain; test: SPR binding assay; conditions: SPR, steady state, mean of three repeats; read-out: KD (steady state affinity)
Description: Next, the sample was desalted using PD midiTrap™ G-25 (GE Healthcare) columns following the manufacturer’s instructions and was further purified by SEC, concentrated, and stored at -80 °C. Enzyme activity was tested in a ubiquitin-probe assay. SPR experiments were performed on a Biacore 8 K+ instrument (Cytiva). USP9X catalytic domain with a C-terminal AviTag™ was immobilised in 10 mM HEPES, 150 mM NaCl at pH 7.4 on a Series S Sensor Chip SA (Cytiva) by coupling. […] Running buffer was supplemented with 2% (v/v) DMSO. Multi-cycle kinetics were performed with 120 s associations and 600 s dissociations at 30 µL/min with no further regeneration. Binding constants were determined in Biacore Insight evaluation software (v5.0.18) at steady state, taking the median response over a 5-s window beginning at 10 s before the end of the association phase. Final KD values are the mean of three independent experiments.

[6] = tested on: MOLT-4 cells; test: NCI-60 cancer cell panel, MOLT-4; type: cell-based, human; conditions: 10 µM, 3 days
Description: (§4) Inhibitors were tested at 10 µM. Data shown is the mean of two technical replicates and is shown relative to the no-drug control, and relative to the time zero number of cells.

[7] = tested on: 57 human cancer cell lines; test: NCI-60 cancer cell panel; type: cell-based; conditions: 72 h, 3 days, in five cell lines across three cancer types, read-out: cell growth inhibition
Description: as §4

[8] = target: T3, USP9X Δβ (USP9X β-hairpin deletion) (Homo sapiens, UniProt Q93008, DEL1924-1943); test: Ub-Rho cleavage assay, USP9X Δβ variant; type: biochemical
T3 construct: His/SUMO (pOPIN-S vector) (N, cleaved yes); made in house; host or cells: E. coli BL21
Description: as §2, §3

T3 sequence (Q93008 with tags, fused parts or gaps DEL1924-1943): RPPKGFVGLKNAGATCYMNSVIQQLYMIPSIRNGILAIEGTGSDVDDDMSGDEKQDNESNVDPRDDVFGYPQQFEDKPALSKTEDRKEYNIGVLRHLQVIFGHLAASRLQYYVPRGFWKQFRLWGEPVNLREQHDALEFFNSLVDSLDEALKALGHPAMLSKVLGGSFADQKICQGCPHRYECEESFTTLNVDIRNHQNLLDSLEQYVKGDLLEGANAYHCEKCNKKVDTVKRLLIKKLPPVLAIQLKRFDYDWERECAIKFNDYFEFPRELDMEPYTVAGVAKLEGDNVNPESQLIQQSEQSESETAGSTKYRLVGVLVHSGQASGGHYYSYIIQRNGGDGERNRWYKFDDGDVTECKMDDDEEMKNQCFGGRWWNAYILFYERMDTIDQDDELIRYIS
T2 sequence (Q93008 with tags, fused parts or gaps Y1757F/K1759R/D1761E/L1762V/A1766S/DEL1924-1943): as the sequence (Q93008 with tags, fused parts or gaps DEL1924-1943) above, with Y207F, K209R, D211E, L212V, A216S counted along it

## Cc1[nH]c2ccc(C(=O)N3CCN(S(=O)(=O)c4ccc5c(c4)OCCO5)CC3)cc2c1C [WEHI-092]
[1]
  modification of USP9X with Ub-PA probe: prevented the modification of USP9X with ubiquitin propargylamide; also recorded: unable to be modified by the probe
[2]
  cell killing of UO-31 cells (IncuCyte): killed
[3]
  activity of USP9X/USP24 chimera Δβ in presence of compound: remained fully active at concentrations up to 10 µM
[4]
  toxicity to HUVECs: non-lethal and non-toxic
[5]
  Kd: 1000 nM and 1050 nM
[6]
  cell growth, MOLT-4: stalling cell growth completely
[7]
  inhibition at 10 µM: > 50%
[8]
  IC50: 248 nM
